These results are taken from patent publication US5741671A, “Isolation cloning and expression of transmembrane water channel aquaporin 1(AQP1)” (The Johns Hopkins University, priority 1995, dated 1998).

Experiment [1] concerns the target T1, AQP1 (Homo sapiens, UniProt P29972).
T1 sequence (P29972 1-269): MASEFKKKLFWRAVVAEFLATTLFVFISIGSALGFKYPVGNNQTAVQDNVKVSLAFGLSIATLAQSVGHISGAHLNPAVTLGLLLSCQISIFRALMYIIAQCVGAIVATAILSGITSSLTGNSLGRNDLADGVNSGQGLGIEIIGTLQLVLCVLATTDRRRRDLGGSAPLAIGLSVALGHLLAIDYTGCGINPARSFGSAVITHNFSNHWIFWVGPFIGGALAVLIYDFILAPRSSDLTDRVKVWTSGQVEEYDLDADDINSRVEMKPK
Put plainly: Xenopus oocyte swelling assay, AQP1 cRNA-injected oocytes (Example 11). Type of experiment: cell-based. Set-up: expressed in transfected cells; host or cells: Xenopus oocytes injected with AQP1 cRNA.

The target in experiment [2] is T1, AQP1. Put plainly: Xenopus oocyte osmotic swelling assay, AQP1 RNA-injected oocytes (Example 4). To be noted: for Pf (osmotic water permeability): AQP1 RNA-injected (10 ng) oocytes, 22° C. In kind it is cell-based. Set-up: expressed in transfected cells; host or cells: Xenopus laevis oocytes injected with in vitro transcribed AQP1 RNA. On the procedure: (§1) Expression of AQP1 in Xenopus oocytes. Oocytes were removed from female Xenopus laevis frogs and prepared as described by Dascal (CRC Crit. Rev. Biochem., 1987, 22:317-373). Oocytes were injected with 0.05 microliters of water (control) or the same volume of water containing 1-10 nanograms of AQP1 RNA. The oocytes were incubated for up to 96 hours at 18° C. in modified Barth's buffer (88 mM NaCl, 1 mM KCl, 0.8 mM MgSO4, 0.3 mM Ca(NO3)2, 0.4 mM CaCl2, 2.4 mm NaHCO3, 10 mM HEPES, pH=7.4, total osmolality=200 mOsm/kg) also containing antibiotics. The whole oocytes were then removed and total cellular protein was dissolved in 40 microliters of buffer containing 1% (w/v) SDS and analyzed by immunoblot (Towbin et al., 1979, Proc. Natl. Acad. Sci. USA 76:4350-4354).
A swelling assay was adapted from that of published work (Fischbarg et al., 1990, Proc. Natl. Acad. Sci. USA 87:3244-3247; Zhang et al., 1990, J. Biol. Chem. 265: 15375-15378). Control-injected oocytes and AQP1 RNA-injected oocytes were incubated at 22° C. in modified Barth's solution diluted with distilled H2 O to 30% of the original tonicity. The oocytes were then observed by videomicroscopy. Swelling was monitored with a Nikon phase-contrast microscope equipped for videorecording. The longest (D1) and shortest (D2) diameters of the oocytes were measured at 15- to 30-second intervals. Oocyte volumes (V) at each time point were calculated relative to volume at the initial observation (Vo):
The change in relative volume with time, d(V/Vo)/dt, up to 8 minutes (or time of oocyte rupture) was fitted by computer to a quadratic polynomial, and initial rates of swelling were calculated. Osmotic water permeability (Pf, in cm/s) was calculated from osmotic swelling data, initial oocyte surface area (S=0.045 cm^2), and the molar volume of water (Vw =18 cm^3 /mol) (Zhang et al., 1990, J. Biol. Chem. 15375):
Pf =Vo ×d(V/Vo)dt]/[S×Vw x(osmm
After 72 hours, control- or AQP1 RNA-injected (10 ng) oocytes were treated as indicated. Some oocytes were left in standard Barth's buffer prior to measurement of osmotic swelling at 22° C. Other oocytes were incubated 5 minutes in Barth's buffer containing 0.3 mM or 3 mM HgCl2 as described, then removed and incubated for 15 min in 5 mM β-mercaptoethanol prior to osmotic swelling in the presence of β-mercaptoethanol.
After 72 hours, control-injected oocytes and oocytes injected with 0.1 to 10 ng of AQP1 RNA were studied for osmotic swelling at 22° C. The amount of AQP1 protein was estimated by dilutional immunoblotting (Denker et al., 1988, J. Biol. Chem. 263:15634; Laemmli, 1970, Nature 227:680; Towbin et al., 1979, Proc. Natl. Acad. Sci., 76:4350; Davis and Bennett, 1982, 257:5816).

Experiment [3] deals with Red cell water channels. The note with it: cited from earlier work.
Experiment [4] relates to control-injected oocytes. Nature of the experiment: Xenopus oocyte osmotic swelling assay, control-injected oocytes. Type of experiment: cell-based, Xenopus laevis. The note with it: no RNA injected, 0.3 mM HgCl2, 22° C. As to the method:
as §1
A swelling assay was adapted from that of published work (Fischbarg et al., 1990, Proc. Natl. Acad. Sci. USA 87:3244-3247; Zhang et al., 1990, J. Biol. Chem. 265: 15375-15378). […] Swelling was monitored with a Nikon phase-contrast microscope equipped for videorecording. The longest (D1) and shortest (D2) diameters of the oocytes were measured at 15- to 30-second intervals. Oocyte volumes (V) at each time point were calculated relative to volume at the initial observation (Vo): […]

`[Cl][Hg][Cl]` [HgCl2]: in experiment [1] (1 mM HgCl2, 5 min), the “inhibition of the increase in Pf mediated by AQP1” value is “blocked”. Besides, the “inhibition of swelling of AQP1 RNA-injected oocytes” value in experiment [2] (0.3 mM HgCl2) was “inhibited”. Further, the “Pf (osmotic water permeability)” value is 80.7 cm/s x 10^-4 in experiment [2] (0.3 mM HgCl2 5 minutes), 34.5 cm/s x 10^-4 in experiment [2] (3.0 mM HgCl2 5 minutes) and 20.3 cm/s x 10^-4 in experiment [4]. Besides, the “inhibition of the red cell / membrane water channel” value in experiment [3] (submillimolar concentrations) is recorded as “can be inhibited by submillimolar concentrations”.
On to `OCCS` [β-mercaptoethanol], for which the “restoration of Pf of AQP1-expressing oocytes after HgCl2” value in experiment [1] (5 mM β-mercaptoethanol 30 min after 1 mM HgCl2) is recorded as “restored”. The “restoration of swelling after HgCl2 inhibition” value in experiment [2] (5 mM β-mercaptoethanol after 0.3 mM HgCl2) is reported as “restored”. For the same molecule, in experiment [3] (5 mM β-mercaptoethanol), the “restoration of the membrane water channel after HgCl2” value is reported as “may be restored”.
